Target: Cyclin-dependent kinase 2 (Homo sapiens, UniProt P24941)
Test: Inhibition of Cyclin-dependent kinase 2 (CDK2)

CN1CCC(c2c(O)cc(O)c3c(=O)cc(Sc4ccccc4Cl)oc23)C(O)C1 (stereo unspecified)
IC50: 2.1 µM

Source: ChEMBL document CHEMBL1136795, “A computational model of binding thermodynamics: the design of cyclin-dependent kinase 2 inhibitors” (J Med Chem, 2003)
